In patent US8877748B2, “Heterocyclic fused anthraquinone derivatives, manufacturing method and pharmaceutical composition using thereof” (National Defense Medical Center, priority 2012, dated 2014):
“And” between values parts separate entries of the source, which are not always exact repeats. Equal entries are not always repeated.

Columns and labels:
[1] = test system: SNB-19; assay: NCI one-dose screening, CNS cancer SNB-19; assay type: cell-based, human; settings: 10 μM
[2] = test system: HL-60, TB; assay: NCI one-dose screening, leukemia HL-60, TB; assay type: cell-based, human; settings: 10 μM
[3] = test system: UACC-62; assay: NCI one-dose screening, melanoma UACC-62; assay type: cell-based, human; settings: 10 μM
[4] = test system: OVCAR-3; assay: NCI one-dose screening, ovarian cancer OVCAR-3; assay type: cell-based, human; settings: 10 μM
[5] = test system: SF-539; assay: NCI one-dose screening, CNS cancer SF-539; assay type: cell-based, human; settings: 10 μM
[6] = test system: NCI-H460; assay: NCI one-dose screening, non-small cell lung cancer NCI-H460; assay type: cell-based, human; settings: 10 μM
[7] = test system: PRMI-8226 cell line; assay: NCI one-dose screening, leukemia PRMI-8226; assay type: cell-based, human; settings: 10 μM
[8] = test system: MOLT-4; assay: NCI one-dose screening, leukemia MOLT-4; assay type: cell-based, human; settings: 10 μM
[9] = test system: HT29; assay: NCI one-dose screening, colon cancer HT29; assay type: cell-based, human; settings: 10 μM
[10] = test system: SK-MEL-2; assay: NCI one-dose screening, melanoma SK-MEL-2; assay type: cell-based, human; settings: 10 μM
[11] = test system: MALME-3M; assay: NCI one-dose screening, melanoma MALME-3M; assay type: cell-based, human; settings: 10 μM
[12] = test system: OVCAR-5; assay: NCI one-dose screening, ovarian cancer OVCAR-5; assay type: cell-based, human; settings: 10 μM
[13] = test system: SR; assay: NCI one-dose screening, leukemia SR; assay type: cell-based, human; settings: 10 μM
[14] = test system: TK-10; assay: NCI one-dose screening, renal cancer TK-10; assay type: cell-based, human; settings: 10 μM
[15] = test system: SNB-75; assay: NCI one-dose screening, CNS cancer SNB-75; assay type: cell-based, human; settings: 10 μM
[16] = test system: NCI-H23; assay: NCI one-dose screening, non-small cell lung cancer NCI-H23; assay type: cell-based, human; settings: 10 μM
[17] = test system: NCI-H226; assay: NCI one-dose screening, non-small cell lung cancer NCI-H226; assay type: cell-based, human; settings: 10 μM
[18] = test system: A549/ATCC; assay: NCI one-dose screening, non-small cell lung cancer A549/ATCC; assay type: cell-based, human; settings: 10 μM
[19] = test system: SK-MEL-5; assay: NCI one-dose screening, melanoma SK-MEL-5; assay type: cell-based, human; settings: 10 μM
[20] = test system: OVCAR-4; assay: NCI one-dose screening, ovarian cancer OVCAR-4; assay type: cell-based, human; settings: 10 μM
[21] = test system: SK-MEL-28; assay: NCI one-dose screening, melanoma SK-MEL-28; assay type: cell-based, human; settings: 10 μM
[22] = test system: KM12; assay: NCI one-dose screening, colon cancer KM12; assay type: cell-based, human; settings: 10 μM
[23] = test system: HCC-2998; assay: NCI one-dose screening, colon cancer HCC-2998; assay type: cell-based, human; settings: 10 μM
[24] = test system: UACC-257; assay: NCI one-dose screening, melanoma UACC-257; assay type: cell-based, human; settings: 10 μM
[25] = test system: SF-268; assay: NCI one-dose screening, CNS cancer SF-268; assay type: cell-based, human; settings: 10 μM
[26] = test system: NCI-H522; assay: NCI one-dose screening, non-small cell lung cancer NCI-H522; assay type: cell-based, human; settings: 10 μM
[27] = test system: IGROV1; assay: NCI one-dose screening, ovarian cancer IGROV1; assay type: cell-based, human; settings: 10 μM
[28] = test system: HCT-116; assay: NCI one-dose screening, colon cancer HCT-116; assay type: cell-based, human; settings: 10 μM
[29] = test system: SN12C; assay: NCI one-dose screening, renal cancer SN12C; assay type: cell-based, human; settings: 10 μM
[30] = test system: 786-O; assay: NCI one-dose screening, renal cancer 786-O; assay type: cell-based, human; settings: 10 μM
[31] = test system: PC-3 prostate cancer cell line; assay: SRB assay cell viability, PC-3 prostate cancer cell line; assay type: cell-based, human; settings: Homo sapiens, PC-3 prostate cancer cell line, Table II prints no unit, μM printed, read-out: SRB assay: 50% inhibition of cancer cell proliferation of sample concentration (IC50) of PC-3 prostate cancer cell line
[32] = test system: M14; assay: NCI one-dose screening, melanoma M14; assay type: cell-based, human; settings: 10 μM
[33] = test system: LOX IMVI; assay: NCI one-dose screening, melanoma LOX IMVI; assay type: cell-based, human; settings: 10 μM
[34] = test system: NCl/ADR-RES; assay: NCI one-dose screening, breast cancer NCl/ADR-RES; assay type: cell-based, human; settings: 10 μM; listed under Ovarian cancer
[35] = test system: K562cell line; assay: NCI one-dose screening, leukemia K562; assay type: cell-based, human; settings: 10 μM
[36] = test system: HOP-62; assay: NCI one-dose screening, non-small cell lung cancer HOP-62; assay type: cell-based, human; settings: 10 μM
[37] = test system: U251; assay: NCI one-dose screening, CNS cancer U251; assay type: cell-based, human; settings: 10 μM
[38] = test system: ACHN; assay: NCI one-dose screening, renal cancer ACHN; assay type: cell-based, human; settings: 10 μM
[39] = test system: HCT-15; assay: NCI one-dose screening, colon cancer HCT-15; assay type: cell-based, human; settings: 10 μM
[40] = test system: OVCAR-8; assay: NCI one-dose screening, ovarian cancer OVCAR-8; assay type: cell-based, human; settings: 10 μM
[41] = test system: NCI-H322M; assay: NCI one-dose screening, non-small cell lung cancer NCI-H322M; assay type: cell-based, human; settings: 10 μM; Non-small cell lung cancer
[42] = test system: COLO 205; assay: NCI one-dose screening, colon cancer COLO 205; assay type: cell-based, human; settings: 10 μM
[43] = test system: RXF, 393; assay: NCI one-dose screening, renal cancer RXF, 393; assay type: cell-based, human; settings: 10 μM
[44] = test system: PC-3; assay: NCI one-dose screening, prostate cancer PC-3; assay type: cell-based, human; settings: 10 μM
[45] = test system: MDA, -MB-435; assay: NCI one-dose screening, breast cancer MDA, -MB-435; assay type: cell-based, human; settings: 10 μM; listed under Melanoma
[46] = test system: SK-OV-3; assay: NCI one-dose screening, ovarian cancer SK-OV-3; assay type: cell-based, human; settings: 10 μM
[47] = test system: HS 578-T; assay: NCI one-dose screening, breast cancer HS 578-T; assay type: cell-based, human; settings: 10 μM; Breast cancer
[48] = test system: T-47D; assay: NCI one-dose screening, breast cancer T-47D; assay type: cell-based, human; settings: 10 μM
[49] = test system: SF-295; assay: NCI one-dose screening, CNS cancer SF-295; assay type: cell-based, human; settings: 10 μM
[50] = test system: BT-549; assay: NCI one-dose screening, breast cancer BT-549; assay type: cell-based, human; settings: 10 μM
[51] = test system: DU145; assay: NCI one-dose screening, prostate cancer DU145; assay type: cell-based, human; settings: 10 μM
[52] = test system: UO-31; assay: NCI one-dose screening, renal cancer UO-31; assay type: cell-based, human; settings: 10 μM
[53] = test system: MDA-MB-231/ATCC; assay: NCI one-dose screening, breast cancer MDA-MB-231/ATCC; assay type: cell-based, human; settings: 10 μM
[54] = test system: HOP-92; assay: NCI one-dose screening, non-small cell lung cancer HOP-92; assay type: cell-based, human; settings: 10 μM
[55] = NCI one-dose screening, renal cancer A489; assay type: cell-based, human; settings: 10 μM
[56] = test system: MCF7; assay: NCI one-dose screening, breast cancer MCF7; assay type: cell-based, human; settings: 10 μM
[57] = test system: CCRF-CEM; assay: NCI screening platform one-dose single concentration screening, leukemia CCRF-CEM; assay type: cell-based, human; settings: 10 μM
[58] = test system: MDA-MB-468; assay: NCI one-dose screening, breast cancer MDA-MB-468; assay type: cell-based, human; settings: 10 μM
[59] = test system: human tumor cell lines; assay: NCI one-dose screening, Mean / Delta / Range of growth percent over all tested cell lines; assay type: cell-based; settings: 10 μM
[60] = test system: CAKI-1; assay: NCI one-dose screening, renal cancer CAKI-1; assay type: cell-based, human; settings: 10 μM

O=C1c2ccccc2C(=O)c2c1cc(SCc1ccc(Cl)cc1)c1nsnc21 [C56, 4-(4-chloro-benzylthio)anthra[2,1-c] [1,2,5]thiadiazol-6,11-dione]
Growth Percent SNB-19 [1]: 104.30%
Growth Percent HL-60(TB) [2]: 57.42%
Growth Percent UACC-62 [3]: 101.52%
Growth Percent OVCAR-3 [4]: 113.46%
Growth Percent SF-539 [5]: 97.95%
Growth Percent NCI-H460 [6]: 104.55%
Growth Percent RPMI-8226 [7]: 86.78%
melting point: 261 to 262 °C
Growth Percent MOLT-4 [8]: 22.72%
Growth Percent HT29 [9]: 96.41%
Growth Percent SK-MEL-2 [10]: 109.63%
Growth Percent MALME-3M [11]: 86.38%
Growth Percent OVCAR-5 [12]: 104.48%
Growth Percent SR [13]: 63.73%
Growth Percent TK-10 [14]: 121.91%
Growth Percent SNB-75 [15]: 63.35%
Growth Percent NCI-H23 [16]: 82.13%
Growth Percent NCI-H226 [17]: 82.14%
Growth Percent A549/ATCC [18]: 100.62%
Growth Percent SK-MEL-5 [19]: 89.57%
Growth Percent OVCAR-4 [20]: 84.19%
Growth Percent SK-MEL-28 [21]: 95.35%
Growth Percent KM12 [22]: 105.46%
Growth Percent HCC-2998 [23]: 102.54%
Growth Percent UACC-257 [24]: 78.70%
Growth Percent SF-268 [25]: 107.19%
Growth Percent NCI-H522 [26]: 82.61%
Growth Percent IGROV1 [27]: 84.25%
Growth Percent HCT-116 [28]: 114.73%
Growth Percent SN12C [29]: 93.61%
Growth Percent 786-0 [30]: 117.98%
IC50 [31]: > 15 µM
Growth Percent M14 [32]: 126.40%
Growth Percent LOX IMVI [33]: 86.69%
Growth Percent NCI/ADR-RES [34]: 95.73%
Growth Percent K562 [35]: 67.53%
Growth Percent HOP-62 [36]: 89.15%
Growth Percent U251 [37]: 94.44%
Growth Percent ACHN [38]: 94.35%
Growth Percent HCT-15 [39]: 97.91%
Growth Percent OVCAR-8 [40]: 94.19%
Growth Percent NCI-H322M [41]: 94.10%
Growth Percent COLO 205 [42]: 99.94%
Growth Percent RXF 393 [43]: 104.79%

O=C1c2ccccc2C(=O)c2c1cc(Sc1ccc(Cl)cc1)c1nsnc21 [C22, 4-(4-chloro-phenylthio)anthra[2,1-c] [1,2,5]thiadiazol-6,11-dione]
Growth Percent PC-3 [44]: 86.94%
Growth Percent MDA-MB-435 [45]: 106.67%
Growth Percent SNB-19 [1]: 105.18%
Growth Percent HL-60(TB) [2]: 87.34%
Growth Percent UACC-62 [3]: 90.65%
Growth Percent OVCAR-3 [4]: 118.64%
Growth Percent SK-OV-3 [46]: 108.96%
Growth Percent SF-539 [5]: 107.00%
Growth Percent NCI-H460 [6]: 99.52%
Growth Percent RPMI-8226 [7]: 90.15%
Growth Percent HS 578T [47]: 103.37%
Growth Percent MOLT-4 [8]: 59.21%
Growth Percent SK-MEL-2 [10]: 109.49%
Growth Percent MALME-3M [11]: 105.10%
Growth Percent SR [13]: 110.89%
Growth Percent TK-10 [14]: 139.80%
Growth Percent T-47D [48]: 85.04%
Growth Percent SNB-75 [15]: 91.73%
Growth Percent SF-295 [49]: 97.26%
Growth Percent NCI-H23 [16]: 104.26%
Growth Percent BT-549 [50]: 98.88%
Growth Percent NCI-H226 [17]: 94.77% and 93.41%
Growth Percent A549/ATCC [18]: 103.88%
Growth Percent DU145 [51]: 117.15%
Growth Percent OVCAR-4 [20]: 76.82%
Growth Percent UO-31 [52]: 79.46%
Growth Percent MDA-MB-231/ATCC [53]: 89.05%
Growth Percent SK-MEL-28 [21]: 130.48%
Growth Percent KM12 [22]: 101.50%
Growth Percent HOP-92 [54]: 101.98%
Growth Percent HCC-2998 [23]: 106.82%
Growth Percent A498 [55]: 93.03%
Growth Percent UACC-257 [24]: 95.45%
Growth Percent SF-268 [25]: 104.55%
Growth Percent NCI-H522 [26]: 102.62%
Growth Percent IGROV1 [27]: 84.93%
Growth Percent HCT-116 [28]: 98.25%
Growth Percent SN12C [29]: 86.95%
Growth Percent 786-0 [30]: 108.70%
IC50 [31]: > 15 µM
Growth Percent M14 [32]: 105.44%
Growth Percent LOX IMVI [33]: 83.24%
Growth Percent NCI/ADR-RES [34]: 102.42%
Growth Percent K562 [35]: 94.91%
Growth Percent HOP-62 [36]: 94.80%
Growth Percent MCF7 [56]: 86.11%
Growth Percent CCRF-CEM [57]: 79.34%
Growth Percent U251 [37]: 103.69%
Growth Percent MDA-MB-468 [58]: 46.13%
Growth Percent Delta ([59]; delta over all cell lines): 51.95%
Growth Percent Mean ([59]; mean over all cell lines): 98.08%
Growth Percent Range ([59]; range over all cell lines): 93.67%
Growth Percent CAKI-1 [60]: 86.97%
Growth Percent HCT-15 [39]: 98.10%
Growth Percent OVCAR-8 [40]: 88.60%
Growth Percent NCI-H322M [41]: 100.11%
Growth Percent COLO 205 [42]: 121.41%
Growth Percent RXF 393 [43]: 117.52%

Cc1ccc(Oc2cc3c(c4nsnc24)C(=O)c2ccccc2C3=O)cc1
melting point: 244 to 245 °C

O=C1c2ccccc2C(=O)c2c1cc(S(=O)(=O)[O-])c1nsnc21.[Na+] [C3, Sodium 6,11-dioxo-6,11-dihydroanthra[2,1-c][1,2,5]thiadiazole-4-sulfonate]
melting point: 293 to 295 °C
IC50 [31]: 13.3 µM
